Data reported in US20230407243A1, “GENETIC PLATFORM TO INVESTIGATE THE FUNCTIONS OF BACTERIAL DRUG EFFLUX PUMPS” (priority 2022, published 2023).

What was measured:
Experiment in all cases: MIC susceptibility profiling, porinated efflux platform
Type in all cases: cell-based, Escherichia coli
[1] = test system: EKO-35 araC::mdtBC Pore; details: for Fold changes of MICs: EKO-35 araC::mdtBC Pore compared to EKO-35-Pore; for Minimum inhibitory concentration / MIC: EKO-35 araC::mdtBC Pore, technical duplicate; for MIC: Escherichia coli, read-out: Minimum inhibitory concentration; for efflux pump-mediated resistance vs EKO-35-Pore: MdtBC with the pore
In short: (§1)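 MIC values come from background-corrected OD600 readings (pre-incubation OD subtracted) after 18 h at 37 °C and 900 rpm in MHB II. Compounds were tested in duplicate as 2-fold dilutions. The inoculum came from 18 h LB cultures adjusted to OD600 ~1.0 and diluted 1/2000, and the pore-bearing strains were vancomycin-checked beforehand.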

[2] = test system: EKO-35 araC::acrB Pore; details: for Fold changes of MICs: EKO-35 araC::acr-B Pore compared to EKO-35-Pore; for Minimum inhibitory concentration, EKO-35 araC::acrB Pore / MIC: Table 14A, porinated, technical duplicate; for MIC: Escherichia coli, read-out: Minimum inhibitory concentration, EKO-35 araC::acrB Pore
In short: as §1

[3] = test system: EKO-35 araC::mdtEF Pore; details: for Fold changes of MICs: EKO-35 araC::mdtEF Pore compared to EKO-35-Pore; for Minimum inhibitory concentration, EKO-35 araC::mdtEF Pore / MIC: Table 14A, porinated, technical duplicate; for MIC: Escherichia coli, read-out: Minimum inhibitory concentration, EKO-35 araC::mdtEF Pore
In short: as §1

[4] = test system: EKO-35 araC::macAB Pore; details: for Fold changes of MICs: EKO-35 araC::macAB Pore compared to EKO-35-Pore; for Minimum inhibitory concentration / MIC: EKO-35 araC::macAB Pore, technical duplicate; for MIC: Escherichia coli, read-out: Minimum inhibitory concentration
In short: as §1

[5] = test system: EKO-35 araC::emrAB Pore; details: for Fold changes of MICs: EKO-35 araC::emrAB Pore compared to EKO-35-Pore; for Minimum inhibitory concentration / MIC: EKO-35 araC::emrAB Pore, technical duplicate; for MIC: Escherichia coli, read-out: Minimum inhibitory concentration
In short: as §1

[6] = test system: EKO-35 araC::mexCD Pore; details: for Fold changes of MICs: EKO-35 araC::mexCD Pore compared to EKO-35-Pore; for Minimum inhibitory concentration / MIC: EKO-35 araC::mexCD Pore, technical duplicate; for MIC: Escherichia coli, read-out: Minimum inhibitory concentration; for efflux pump-mediated resistance vs EKO-35-Pore: MexCD, OM compromised
In short: as §1

[7] = test system: EKO-35 araC::acrEF Pore; details: for Fold changes of MICs: EKO-35 araC::acrEF Pore compared to EKO-35-Pore; for Minimum inhibitory concentration, EKO-35 araC::acrEF Pore / MIC: Table 14A, porinated, technical duplicate; for MIC: Escherichia coli, read-out: Minimum inhibitory concentration, EKO-35 araC::acrEF Pore; for efflux pump-mediated resistance vs EKO-35-Pore: AcrEF with the pore
In short: as §1

Row | Molecule | Fold changes of MICs [1] | Minimum inhibitory concentration [1] | Fold changes of MICs [2] | Minimum inhibitory concentration, EKO-35 araC::acrB Pore [2] | Fold changes of MICs [3] | Minimum inhibitory concentration, EKO-35 araC::mdtEF Pore [3] | Fold changes of MICs [4] | Minimum inhibitory concentration [4] | Fold changes of MICs [5] | Minimum inhibitory concentration [5] | Fold changes of MICs [6] | Minimum inhibitory concentration [6] | Fold changes of MICs [7] | Minimum inhibitory concentration, EKO-35 araC::acrEF Pore [7] | MIC [1] | MIC [3] | MIC [4] | MIC [5] | MIC [6] | MIC [7] | other results
1 | N#CC(=NNc1ccc(F)c(Cl)c1)C(=O)c1ccc(Cl)cc1 [compound 15] | 1 fold | 320 µg/mL | 1 fold | 320 µg/mL | 1 fold | 320 µg/mL | 1 fold | 320 µg/mL | 1 fold | 320 µg/mL | 1 fold | 320 µg/mL | 1 fold | 320 µg/mL |  |  |  |  |  |  | 
2 | Nc1ccccc1SCc1nc(-c2ccc(Cl)cc2)no1 [compound 16] | 1 fold | 5 µg/mL | 32 fold | 160 µg/mL | 16 fold | 80 µg/mL | 1 fold | 5 µg/mL | 16 fold | 80 µg/mL | 16 fold | 80 µg/mL | 16 fold | 80 µg/mL |  |  |  |  |  |  | 
3 | COc1cccc2c1C(=O)c1c(O)c3c(c(O)c1C2=O)C[C@@](O)(C(=O)CO)C[C@@H]3O[C@H]1C[C@H](N)[C@H](O)[C@H](C)O1 [doxorubicin] | 4 fold |  | 64 fold |  | 32 fold |  | 1 fold |  | 1 fold |  | 4 fold |  | 16 fold |  | 3.12 µg/mL | 25 µg/mL | 0.781 µg/mL | 0.781 µg/mL | 3.12 µg/mL | 12.5 µg/mL | efflux pump-mediated resistance vs EKO-35-Pore [1]: associated with resistance
4 | C[C@@H]1O[C@@H]1P(=O)(O)O [fosfomycin] | 1 fold |  | 1 fold |  | 1 fold |  | 1 fold |  | 2 fold |  | 2 fold |  | 2 fold |  | 0.781 µg/mL | 0.781 µg/mL | 0.781 µg/mL | 1.56 µg/mL | 1.56 µg/mL | 1.56 µg/mL | MIC [2]: 0.781 µg/mL
5 | NC[C@H]1O[C@H](O[C@H]2[C@H](O)[C@@H](O[C@H]3O[C@H](CO)[C@@H](O)[C@H](N)[C@H]3O)[C@H](N)C[C@@H]2N)[C@H](O)[C@@H](O)[C@@H]1O [kanamycin] | 1 fold |  | 2 fold |  | 1 fold |  | 2 fold |  | 1 fold |  | 1 fold |  | 1 fold |  | 1.56 µg/mL | 1.56 µg/mL |  | 1.56 µg/mL | 1.56 µg/mL | 1.56 µg/mL | 
6 | CN(C)c1ccc(O)c2c1C[C@H]1C[C@H]3[C@H](N(C)C)C(O)=C(C(N)=O)C(=O)[C@@]3(O)C(O)=C1C2=O [minocycline] | 1 fold |  | 8 fold |  | 2 fold |  | 1 fold |  | 1 fold |  | 1 fold |  | 2 fold |  | 0.049 µg/mL | 0.098 µg/mL | 0.049 µg/mL | 0.049 µg/mL | 0.049 µg/mL | 0.098 µg/mL | MIC [2]: 0.391 µg/mL
7 | CCn1cc(C(=O)O)c(=O)c2ccc(C)nc21 [nalidixic acid] | 1 fold |  | 8 fold |  | 1 fold |  | 1 fold |  | 8 fold |  | 2 fold |  | 2 fold |  | 1.25 µg/mL | 1.25 µg/mL | 1.25 µg/mL | 10 µg/mL | 2.5 µg/mL | 2.5 µg/mL | MIC [2]: 10 µg/mL; efflux pump-mediated resistance vs EKO-35-Pore [7]: impacted the ability of AcrEF to confer resistance
8 | CCn1cc(C(=O)O)c(=O)c2cc(F)c(N3CCNCC3)cc21 [norfloxacin] | 2 fold |  | 8 fold |  | 2 fold |  | 2 fold |  | 2 fold |  | 4 fold |  | 4 fold |  | 0.02 µg/mL | 0.02 µg/mL | 0.02 µg/mL | 0.02 µg/mL | 0.039 µg/mL | 0.039 µg/mL | efflux pump-mediated resistance vs EKO-35-Pore [6]: increased resistance
9 | COc1ccc(C[C@H](N)C(=O)N[C@H]2[C@@H](O)[C@H](n3cnc4c(N(C)C)ncnc43)O[C@@H]2CO)cc1 [puromycin] | 1 fold |  | 64 fold |  | 2 fold |  | 1 fold |  | 1 fold |  | 2 fold |  | 4 fold |  | 0.781 µg/mL | 1.56 µg/mL | 0.781 µg/mL | 0.781 µg/mL | 1.56 µg/mL | 3.12 µg/mL | efflux pump-mediated resistance vs EKO-35-Pore [6]: no longer associated MexCD with resistance
10 | C[C@H](CCC(=O)NCCS(=O)(=O)[O-])[C@H]1CC[C@H]2[C@@H]3CC[C@@H]4C[C@H](O)CC[C@]4(C)[C@H]3C[C@H](O)[C@]12C.[Na+] [sodium taurodeoxycholate] | 4 fold | 1000 µg/mL | 4 fold | 1000 µg/mL | 4 fold | 1000 µg/mL | 1 fold | 250 µg/mL | 2 fold | 500 µg/mL | 4 fold | 1000 µg/mL | 4 fold | 1000 µg/mL |  |  |  |  |  |  | efflux pump-mediated resistance vs EKO-35-Pore [1]: associated MdtBC with resistance; efflux pump-mediated resistance vs EKO-35-Pore ([2]; AcrB with the pore): increased resistance; efflux pump-mediated resistance vs EKO-35-Pore ([3]; MdtEF with the pore): increased resistance; efflux pump-mediated resistance vs EKO-35-Pore [6]: increased resistance; efflux pump-mediated resistance vs EKO-35-Pore [7]: increased resistance
11 | CN(C)[C@@H]1C(O)=C(C(N)=O)C(=O)[C@@]2(O)C(O)=C3C(=O)c4c(O)cccc4[C@@](C)(O)[C@H]3C[C@@H]12 [tetracycline] | 1 fold |  | 2 fold |  | 1 fold |  | 1 fold |  | 1 fold |  | 1 fold |  | 1 fold |  | 0.195 µg/mL | 0.195 µg/mL | 0.195 µg/mL | 0.195 µg/mL | 0.195 µg/mL | 0.195 µg/mL | MIC [2]: 0.391 µg/mL
12 | CN[C@H](CC(C)C)C(=O)N[C@H]1C(=O)N[C@@H](CC(N)=O)C(=O)N[C@H]2C(=O)N[C@H]3C(=O)N[C@H](C(=O)N[C@H](C(=O)O)c4cc(O)cc(O)c4-c4cc3ccc4O)[C@H](O)c3ccc(c(Cl)c3)Oc3cc2cc(c3O[C@@H]2O[C@H](CO)[C@@H](O)[C@H](O)[C@H]2O[C@H]2C[C@](C)(N)[C@H](O)[C@H](C)O2)Oc2ccc(cc2Cl)[C@H]1O [vancomycin] | 0 fold |  | 1 fold |  | 1 fold |  | 1 fold |  | 1 fold |  | 1 fold |  | 1 fold |  | 1.56 µg/mL | 6.25 µg/mL | 6.25 µg/mL |  | 6.25 µg/mL |  | 
13 | deoxycholate | 4 fold | 750 µg/mL | 8 fold | 1500 µg/mL | 8 fold | 1500 µg/mL | 1 fold | 187.5 µg/mL | 4 fold | 750 µg/mL | 2 fold | 375 µg/mL |  | 1500 µg/mL |  |  |  |  |  |  | efflux pump-mediated resistance vs EKO-35-Pore [6]: no longer associated MexCD with resistance
